In patent US20250214991A1 (Oncopia Therapeutics, Inc. d/b/a/ SK Life Science Labs, priority 2022, published 2025):

Experiments:
[1] = target: IKZF2 (Homo sapiens (Human), UniProt Q96SW2+Q9UKS7); assay: In vitro IKZF2 HiBit Assay (HEK293T Flp-in-HiBiT cells); assay type: cell-based; conditions: HEK293T Flp-in-HiBiT cells, 6 hrs incubation; for DC50: read-out: IKZF2 HiBit DC50; for Dmax: HEK-293T, read-out: IKZF2 HiBit Dmax (%)
Procedure: In Vitro IKZF2 HiBit Assay
The HiBiT protein tagging system was applied to modified HEK293T Flp-in-HiBiT cells (polyclone) via a CRISPR/Cas9-mediated insertion of the HiBiT peptide tag (Promega™) to the N-terminus of the IKZF2 gene locus (Neon™ transfection system). Test and reference compounds are diluted from 1 mM at 3 folds for 11 doses. 25 nL of diluted compound is transfered to assay plates (Corning3570) using ECHO550, the final DMSO concentration @ 0.1%. The cells are seeded in 3000/25 μL/well to compound plates. It is then incubated for 6 hrs in TC incubator. The amount of Nano-Glo® HiBiT lytic reagent needed to perform the desired experiments is calculated. The Nano-Glo® HiBiT lytic reagent is brought to room temperature. The LgBiT protein is diluted to 1:100 and the Nano-Glo® HiBiT lytic substrate is diluted to 1:50 into an appropriate volume of room temperature Nano-Glo® HiBiT lytic buffer. 15 μL of the detection reagent (or without LgBiT) is dispensed to corresponding well according to the layout. The plate is then shaked for 10 mins at room temperature. After briefly centrifuge, the plate is read on Envision. At the indicated timepoints, the Nano-Glo® HiBiT lytic detection system (Promega™) was utilized for detecting bioluminescence of the HiBiT tag in treated cells: abundance of the tag is proportionate to the level of luminescence. Following normalization to DMSO, dose-response curves were plotted (GraphPad Prism) to determine the concentration points at which 50% of HiBiT-Helios degradation was achieved by each compound. The extent of degradation (range of luminescence) from the highest to lowest concentration points was calculated to determine the Dmax.
(§1) DC50, A: <1 nM; B: 1-10 nM; C: 10-100 nM; D: 100-1000 nM; E: 1000-10000 nM; F: >10,000 nM. Dmax, A: >80%; B: 60-80%; C: 40-60%; D: 20-40%; E: <20%.

[2] = target: IKZF1 (Homo sapiens (Human), UniProt Q13422+Q96SW2); assay: In vitro IKZF1 HiBit Assay (HEK293T Flp-in-HiBiT-IKZF1 stable cell line); assay type: cell-based; conditions: HEK293T Flp-in-HiBiT-IKZF1 stable cell line, 6 hrs incubation; for DC50: read-out: IKZF1 HiBit DC50; for Dmax: HEK-293T, read-out: IKZF1 HiBit Dmax (%)
IKZF1, sequence (Q13422 whole entry): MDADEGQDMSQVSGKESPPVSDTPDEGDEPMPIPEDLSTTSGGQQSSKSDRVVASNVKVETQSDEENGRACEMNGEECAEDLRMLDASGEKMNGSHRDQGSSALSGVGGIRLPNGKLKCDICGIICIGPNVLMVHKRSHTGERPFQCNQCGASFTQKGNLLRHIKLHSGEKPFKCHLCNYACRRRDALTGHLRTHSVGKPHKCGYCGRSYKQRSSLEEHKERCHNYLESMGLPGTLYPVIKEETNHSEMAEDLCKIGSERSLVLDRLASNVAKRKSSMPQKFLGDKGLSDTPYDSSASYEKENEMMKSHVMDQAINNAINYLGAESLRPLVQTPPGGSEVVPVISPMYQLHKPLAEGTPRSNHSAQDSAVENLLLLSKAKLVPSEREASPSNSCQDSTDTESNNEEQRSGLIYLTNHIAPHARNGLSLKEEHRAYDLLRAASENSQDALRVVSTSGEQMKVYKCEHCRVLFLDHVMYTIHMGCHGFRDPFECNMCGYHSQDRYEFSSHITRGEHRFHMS
IKZF1, sequence (Q96SW2 whole entry): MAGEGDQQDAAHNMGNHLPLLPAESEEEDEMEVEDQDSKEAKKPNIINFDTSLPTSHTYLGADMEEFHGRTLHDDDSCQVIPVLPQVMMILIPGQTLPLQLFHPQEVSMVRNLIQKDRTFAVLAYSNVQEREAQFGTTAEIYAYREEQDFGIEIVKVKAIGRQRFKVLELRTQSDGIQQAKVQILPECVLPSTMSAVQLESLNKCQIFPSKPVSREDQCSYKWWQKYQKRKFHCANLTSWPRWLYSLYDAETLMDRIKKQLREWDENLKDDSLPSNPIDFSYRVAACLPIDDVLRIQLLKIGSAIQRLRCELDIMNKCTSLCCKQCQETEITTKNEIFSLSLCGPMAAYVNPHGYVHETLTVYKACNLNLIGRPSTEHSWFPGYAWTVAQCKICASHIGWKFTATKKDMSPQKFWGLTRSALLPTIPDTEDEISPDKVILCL
IKZF1, sequence (Q16531 2-1140 partner): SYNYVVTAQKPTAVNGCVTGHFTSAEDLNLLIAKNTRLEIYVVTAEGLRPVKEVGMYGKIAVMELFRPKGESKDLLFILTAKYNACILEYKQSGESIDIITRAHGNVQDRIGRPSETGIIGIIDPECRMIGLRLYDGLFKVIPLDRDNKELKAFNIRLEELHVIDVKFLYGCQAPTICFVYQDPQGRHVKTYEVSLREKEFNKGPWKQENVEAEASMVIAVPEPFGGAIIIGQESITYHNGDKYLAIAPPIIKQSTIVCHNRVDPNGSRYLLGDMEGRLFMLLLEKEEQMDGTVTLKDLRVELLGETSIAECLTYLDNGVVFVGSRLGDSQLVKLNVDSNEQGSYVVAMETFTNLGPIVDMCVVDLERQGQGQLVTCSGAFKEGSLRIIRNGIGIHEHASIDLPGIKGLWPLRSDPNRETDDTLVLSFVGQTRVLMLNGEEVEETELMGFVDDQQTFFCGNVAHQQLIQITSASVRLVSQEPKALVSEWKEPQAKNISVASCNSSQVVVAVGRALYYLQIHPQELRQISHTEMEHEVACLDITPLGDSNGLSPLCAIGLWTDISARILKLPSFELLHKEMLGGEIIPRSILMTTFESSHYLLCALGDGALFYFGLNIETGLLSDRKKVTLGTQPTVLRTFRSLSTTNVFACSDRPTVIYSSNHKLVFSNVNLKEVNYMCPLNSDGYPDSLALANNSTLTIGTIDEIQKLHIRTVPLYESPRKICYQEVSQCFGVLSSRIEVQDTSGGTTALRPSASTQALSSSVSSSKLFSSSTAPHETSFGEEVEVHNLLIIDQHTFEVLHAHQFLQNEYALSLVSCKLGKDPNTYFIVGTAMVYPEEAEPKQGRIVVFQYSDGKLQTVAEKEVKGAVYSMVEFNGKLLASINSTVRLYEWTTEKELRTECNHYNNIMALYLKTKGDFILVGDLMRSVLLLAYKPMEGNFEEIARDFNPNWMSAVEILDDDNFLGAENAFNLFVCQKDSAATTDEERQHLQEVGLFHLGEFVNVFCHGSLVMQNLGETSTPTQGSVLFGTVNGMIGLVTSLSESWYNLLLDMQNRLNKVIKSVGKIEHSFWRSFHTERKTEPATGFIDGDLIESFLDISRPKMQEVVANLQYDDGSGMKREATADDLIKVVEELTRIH
Procedure: In Vitro IKZF1 HiBit Assay
The HiBiT protein tagging system was applied to modified Cells: modified HEK293T Flp-in-HiBiT-IKZF1 stable cell line (polyclone) via a CRISPR/Cas9-mediated insertion of the HiBiT peptide tag (Promega™) to the N-terminus of the […] gene locus (Neon™ transfection system).
25 nL of diluted compound is transferred to assay plates (Corning3571) using ECHO550, the final DMSO concentration @ 0.1%. The cells are seeded in 3000/25 μL/well to compound plates. The plates are incubated for 6 hrs in TC incubator. The amount of Nano-Glo® HiBiT lytic reagent needed to perform the desired experiments is calculated. The Nano-Glo® HiBiT lytic reagent is brought to room temperature. The LgBiT protein is diluted to 1:100 and the Nano-Glo® HiBiT lytic substrate is brought to 1:50 into an appropriate volume of room temperature Nano-Glo® HiBiT lytic buffer. 15 μL of the detection reagent (or without LgBiT) is dispensed to corresponding well according to the layout. The plate is shaked for 10 mins at room temperature. After briefly centrifuge, the plateis read on Envision. At the indicated timepoints, the Nano-Glo® HiBiT lytic detection system (Promega™) was utilized for detecting bioluminescence of the HiBiT tag in treated cells: abundance of the tag is proportionate to the level of luminescence. Following normalization to DMSO, dose-response curves were plotted (GraphPad Prism) to determine the concentration points at which 50% of HiBiT-Ikaros degradation was achieved by each compound. The extent of degradation (range of luminescence) from the highest to lowest concentration points was calculated to determine the Dmax.
as §1

[3] = target: CRBN/DDB1 (Homo sapiens (Human), UniProt Q96SW2); assay: IC50 measurements for binding to CRBN/DDB1 (HTRF); conditions: His tagged CRBN+DDB, Cy5-labeled Thalidomide probe, one hour
CRBN/DDB1, sequence (Q96SW2 whole entry, species assumed): as the sequence (Q96SW2 whole entry) above
CRBN/DDB1, sequence (Q16531 whole entry partner, species assumed): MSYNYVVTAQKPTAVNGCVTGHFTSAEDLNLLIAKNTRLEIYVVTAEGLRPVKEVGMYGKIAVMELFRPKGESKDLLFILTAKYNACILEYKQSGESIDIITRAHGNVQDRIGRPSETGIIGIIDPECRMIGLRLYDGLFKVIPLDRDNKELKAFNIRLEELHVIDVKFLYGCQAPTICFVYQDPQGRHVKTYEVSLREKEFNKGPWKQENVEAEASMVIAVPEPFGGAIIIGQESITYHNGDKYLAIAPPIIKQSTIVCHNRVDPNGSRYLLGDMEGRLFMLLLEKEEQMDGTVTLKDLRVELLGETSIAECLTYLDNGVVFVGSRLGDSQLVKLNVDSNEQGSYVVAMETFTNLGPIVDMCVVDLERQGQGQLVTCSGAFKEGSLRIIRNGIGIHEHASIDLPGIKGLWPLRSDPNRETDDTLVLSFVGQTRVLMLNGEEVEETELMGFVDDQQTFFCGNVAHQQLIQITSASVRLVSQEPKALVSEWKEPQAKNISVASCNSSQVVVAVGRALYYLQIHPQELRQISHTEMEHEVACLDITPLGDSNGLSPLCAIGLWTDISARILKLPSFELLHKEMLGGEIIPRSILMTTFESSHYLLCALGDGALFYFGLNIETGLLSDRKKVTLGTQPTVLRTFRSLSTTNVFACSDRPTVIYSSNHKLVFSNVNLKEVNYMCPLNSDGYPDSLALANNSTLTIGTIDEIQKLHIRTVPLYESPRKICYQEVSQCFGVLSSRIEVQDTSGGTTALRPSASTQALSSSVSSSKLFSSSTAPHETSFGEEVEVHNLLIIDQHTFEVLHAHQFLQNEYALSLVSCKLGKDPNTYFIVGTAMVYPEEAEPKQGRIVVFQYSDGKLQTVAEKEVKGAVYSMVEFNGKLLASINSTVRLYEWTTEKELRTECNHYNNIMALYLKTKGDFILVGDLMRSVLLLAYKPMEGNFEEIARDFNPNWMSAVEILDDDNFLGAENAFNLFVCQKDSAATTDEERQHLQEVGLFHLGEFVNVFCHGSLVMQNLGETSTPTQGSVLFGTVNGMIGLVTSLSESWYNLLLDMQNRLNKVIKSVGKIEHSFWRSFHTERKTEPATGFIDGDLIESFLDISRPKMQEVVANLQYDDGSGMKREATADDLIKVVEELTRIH
Procedure: In vitro Assay: IC50 Measurements for binding to CRBN/DDB1 (Table E1)
The binding potency was determined using HTRF assay technology (Perkin Elmer). Compounds were serially diluted in DMSO and 0.2 μL volume was transferred to white 384-well plate. The reaction was conducted in total volume of 20 μL with addition of 2 nM His tagged CRBN+DDB−DLS7+CXU4 (Wuxi, catalogue #RP210521GA) to compounds followed by addition of 60 nM Fluorescent probe Cy5-labeled Thalidomide (Tenova Pharma, catalogue #T52461), and 0.4 nM of MAb Anti-6HIS Tb cryptate Gold (Cisbio, catalogue #61HI2TLA in the assay buffer (50 mM HEPES pH 7.5, 1 mM TCEP, 0.01% Brij-35, 50 mM NaCl, and 0.1% BSA). After one hour incubation at room temperature, the HTRF signals were read on Envision reader (Perkin Elemer). Data was analyzed using XLfit using four parameters dose response curve to determine IC50s. A: IC50<0.1 μM; B: 0.1 μM<IC50<[…]; C: 0.5 μM<IC50<1 μM; D: 1 μM<IC50<5 μM; E: 5 μM<IC50<10 μM

IKZF2, sequence (Q9UKS7 whole entry): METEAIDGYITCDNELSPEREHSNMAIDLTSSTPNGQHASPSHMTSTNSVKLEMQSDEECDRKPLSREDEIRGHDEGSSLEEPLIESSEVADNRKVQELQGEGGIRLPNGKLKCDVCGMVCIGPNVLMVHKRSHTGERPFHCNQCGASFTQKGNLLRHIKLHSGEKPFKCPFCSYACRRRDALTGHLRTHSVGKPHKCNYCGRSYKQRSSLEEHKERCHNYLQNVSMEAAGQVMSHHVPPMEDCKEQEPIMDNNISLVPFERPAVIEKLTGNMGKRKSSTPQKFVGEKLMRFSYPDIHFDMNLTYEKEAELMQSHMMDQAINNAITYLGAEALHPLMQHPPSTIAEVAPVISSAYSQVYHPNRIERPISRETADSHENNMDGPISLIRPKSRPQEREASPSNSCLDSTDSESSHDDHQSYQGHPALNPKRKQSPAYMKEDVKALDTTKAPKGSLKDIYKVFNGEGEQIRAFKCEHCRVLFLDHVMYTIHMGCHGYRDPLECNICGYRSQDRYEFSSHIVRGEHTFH
IKZF2, sequence (Q96SW2 whole entry): as the sequence (Q96SW2 whole entry) above
IKZF2, sequence (Q16531 2-1140 partner): as the sequence (Q16531 2-1140 partner) above

| Structure (SMILES) | DC50 [1] | Dmax [1] | DC50 [2] | Dmax [2] | IC50 [3] |
| --- | --- | --- | --- | --- | --- |
| O=C1CCC(N2Cc3cc(-c4cc(CN5CCCC5)c5c(ccn5CCO)n4)ccc3C2=O)C(=O)N1 (stereo not shown) [Example 175, 3-(5-(1-(2-hydroxyethyl)-7-(pyrrolidin-1-ylmethyl)-1H-pyrrolo[3,2-b]pyridin-5-yl)-1-oxoisoindolin-2-yl) piperidine-2,6-dione] | 10 to 100 nM | 60 to 80% | > 10000 nM | < 20% | 1000 to 5000 nM |
| CC(C)n1nc(N)c2nc(-c3ccc4c(c3)CN(C3CCC(=O)NC3=O)C4=O)cc(CN3CCCC3)c21 (stereo not shown) [Example 177, 3-(5-(3-amino-1-isopropyl-7-(pyrrolidin-1-ylmethyl)-1H-pyrazolo[4,3-b]pyridin-5-yl)-1-oxoisoindolin-2-yl) piperidine-2,6-dione] | 1 to 10 nM | 60 to 80% | 10 to 100 nM | 20 to 40% | 500 to 1000 nM |
| COC1CCN(Cc2cc(-c3ccc4c(c3)CN(C3CCC(=O)NC3=O)C4=O)nc3c2ccn3C)CC1 (stereo not shown) [Example 102, 3-(5-(4-((4-methoxypiperidin-1-yl)methyl)-1-methyl-1H-pyrrolo[2,3-b]pyridin-6-yl)-1-oxoisoindolin-2-yl) piperidine-2,6-dione] | < 1 nM | > 80% | 10 to 100 nM | 20 to 40% | 100 to 500 nM |
| O=C1CCC(N2Cc3cc(-c4cc(CN5CCCC5)c5nc[nH]c5n4)ccc3C2=O)C(=O)N1 (stereo not shown) [Example 145, 3-(1-oxo-5-(7-(pyrrolidin-1-ylmethyl)-3H-imidazo[4,5-b]pyridin-5-yl)isoindolin-2-yl) piperidine-2,6-dione] | 100 to 1000 nM | < 20% | > 10000 nM | < 20% | 1000 to 5000 nM |
| Cn1ccc2c(CN3CCC4(CCCC4)CC3)cc(-c3ccc4c(c3)CN(C3CCC(=O)NC3=O)C4=O)nc21 (stereo not shown) [Example 103, 3-(5-(4-((8-azaspiro[4.5]decan-8-yl)methyl)-1-methyl-1H-pyrrolo[2,3-b]pyridin-6-yl)-1-oxoisoindolin-2-yl) piperidine-2,6-dio] | 1 to 10 nM | > 80% | 10 to 100 nM | 20 to 40% | 100 to 500 nM |
| O=C1CCC(N2Cc3cc(-c4cc(CN5CCCC5)c5cc[nH]c5n4)ccc3C2=O)C(=O)N1 (stereo not shown) [Example 59, 3-(1-oxo-5-(4-(pyrrolidin-1-ylmethyl)-1H-pyrrolo[2,3-b]pyridin-6-yl)isoindolin-2-yl) piperidine-2,6-dione] | 1 to 10 nM | > 80% | > 10000 nM | 20 to 40% | 100 to 500 nM |
| COC1CN(Cc2cc(-c3ccc4c(c3)CN(C3CCC(=O)NC3=O)C4=O)nc3c2ccn3C)C1 (stereo not shown) [Example 85, 3-(5-(4-((3-methoxyazetidin-1-yl)methyl)-1-methyl-1H-pyrrolo[2,3-b]pyridin-6-yl)-1-oxoisoindolin-2-yl) piperidine-2,6-dione] | 1 to 10 nM | > 80% | 1 to 10 nM | 20 to 40% | 100 to 500 nM |
| Cn1ccc2c(CN3CCC3c3ccccc3)cc(-c3ccc4c(c3)CN(C3CCC(=O)NC3=O)C4=O)nc21 (stereo not shown) [Example 71, 3-(5-(1-methyl-4-((2-phenylazetidin-1-yl)methyl)-1H-pyrrolo[2,3-b]pyridin-6-yl)-1-oxoisoindolin-2-yl) piperidine-2,6-dione] | 1 to 10 nM | > 80% | > 10000 nM | 20 to 40% | 100 to 500 nM |
| O=C1CCC(N2Cc3c(ccc(-c4cc(CN5CCCC5)c5cc[nH]c5n4)c3F)C2=O)C(=O)N1 (stereo not shown) [Example 126, 3-(4-fluoro-1-oxo-5-(4-(pyrrolidin-1-ylmethyl)-1H-pyrrolo[2,3-b]pyridin-6-yl)isoindolin-2-yl) piperidine-2,6-dione] | < 1 nM | > 80% | 1 to 10 nM | 40 to 60% | 100 to 500 nM |
| COc1cc(-c2cc(CN3CCCC3)cc3cncn23)cc2c1C(=O)N(C1CCC(=O)NC1=O)C2 (stereo not shown) [Example 32, 3-(7-methoxy-1-oxo-5-(7-(pyrrolidin-1-ylmethyl)imidazo[1,5-a]pyridin-5-yl)isoindolin-2-yl) piperidine-2,6-dione] | – | – | – | – | 100 to 500 nM |
| O=C1CCC(N2Cc3cc(-c4cc(CN5CCCC5)cc5cncn45)cc(F)c3C2=O)C(=O)N1 (stereo not shown) [Example 28, 3-(7-fluoro-1-oxo-5-(7-(pyrrolidin-1-ylmethyl)imidazo[1,5-a]pyridin-5-yl)isoindolin-2-yl) piperidine-2,6-dione] | – | – | – | – | 500 to 1000 nM |
| O=C1CCC(N2Cc3cc(-c4cc(CN5CCCC5)cc5cncn45)c(F)cc3C2=O)C(=O)N1 (stereo not shown) [Example 29, 3-(6-fluoro-1-oxo-5-(7-(pyrrolidin-1-ylmethyl)imidazo[1,5-a]pyridin-5-yl)isoindolin-2-yl) piperidine-2,6-dione] | – | – | – | – | 1000 to 5000 nM |
| O=C1CCC(N2Cc3cc(-c4cc(CN5CCCC5c5ccccc5)cc5nncn45)ccc3C2=O)C(=O)N1 (stereo not shown) [Example 50, 3-(1-oxo-5-(7-((2-phenylpyrrolidin-1-yl)methyl)-[1,2,4]triazolo[4,3-a]pyridin-5-yl)isoindolin-2-yl) piperidine-2,6-dione] | – | – | – | – | 1000 to 5000 nM |
| CC(C)Nc1n[nH]c2c(CN3CCCC3)cc(-c3ccc4c(c3)CN(C3(C)CCC(=O)NC3=O)C4=O)nc12 (stereo not shown) [Example 294, 3-(5-(3-(isopropylamino)-7-(pyrrolidin-1-ylmethyl)-1H-pyrazolo[4,3-b]pyridin-5-yl)-1-oxoisoindolin-2-yl)-3-methylpiperidine-2,6-dione] | 1000 to 10000 nM | 20 to 40% | > 10000 nM | < 20% | – |
| CO[C@H]1C[C@@H](Oc2ccnc3c(CN4CCCC4)cc(-c4ccc5c(c4)CN(C4CCC(=O)NC4=O)C5=O)nc23)C1 (stereo partly shown) [Example 281, 3-(5-(8-((1s,3s)-3-methoxycyclobutoxy)-4-(pyrrolidin-1-ylmethyl)-1,5-naphthyridin-2-yl)-1-oxoisoindolin-2-yl) piperidine-2,6-dione] | 10 to 100 nM | 60 to 80% | > 10000 nM | < 20% | – |
| Cn1nc(N)c2nc(-c3ccc4c(c3)CN(C3CCC(=O)NC3=O)C4=O)cc(CN3CCCC3)c21 (stereo not shown) [Example 183, 3-(5-(3-amino-1-methyl-7-(pyrrolidin-1-ylmethyl)-1H-pyrazolo[4,3-b]pyridin-5-yl)-1-oxoisoindolin-2-yl) piperidine-2,6-dione] | 1 to 10 nM | > 80% | 10 to 100 nM | 40 to 60% | – |
